Values quoted from earlier work in PMC6843717 (ACS Omega, 2019).

Details: cited from earlier work; for bioavailability: FDA-approved small molecules for advanced breast cancer

CO[C@H]1C[C@@H]2CC[C@@H](C)[C@@](O)(O2)C(=O)C(=O)N2CCCC[C@H]2C(=O)O[C@H]([C@H](C)C[C@@H]2CC[C@@H](OCCO)[C@H](OC)C2)CC(=O)[C@H](C)/C=C(\C)[C@@H](O)[C@@H](OC)C(=O)[C@H](C)C[C@H](C)/C=C/C=C/C=C/1C [everolimus]
bioavailability: ~5%

CS(=O)(=O)CCNCc1ccc(-c2ccc3ncnc(Nc4ccc(OCc5cccc(F)c5)c(Cl)c4)c3c2)o1 [lapatinib]
bioavailability (F) (reported for other anticancer drugs): 43–50%

CC(=O)O[C@H]1C(=O)[C@@]2(C)[C@H]([C@H](OC(=O)c3ccccc3)[C@]3(O)C[C@H](OC(=O)[C@H](O)[C@@H](NC(=O)c4ccccc4)c4ccccc4)C(C)=C1C3(C)C)[C@]1(OC(C)=O)CO[C@@H]1C[C@@H]2O [paclitaxel]
bioavailability: ~11%
